≈ marks a conversion by molar mass, not a printed value.
Legend:
[1] = Aqueous solubility of the compound in water containing 5% dextrose at pH 4; type: physicochemical
[2] = tested on: Enterococcus faecalis; experiment: Antibacterial activity against Enterococcus faecalis C21560 by turbidity method; type: functional; conditions: read-out: MIC100
[3] = tested on: Staphylococcus aureus; experiment: Antibacterial activity against Staphylococcus aureus MB2865 by turbidity method; type: functional; conditions: read-out: MIC100
[4] = tested on: Streptococcus pneumoniae; experiment: Antibacterial activity against Streptococcus pneumoniae CL2883 by turbidity method; type: functional; conditions: read-out: MIC100

Row | MIC [2] [µg/mL] | MIC [3] [µg/mL] | MIC [4] [µg/mL] | Compound | solubility [1] [µg/mL]
1 |  |  |  | CO/C(C)=C1/NC(=O)[C@H]([C@@H](C)O)NC(=O)c2csc(n2)-c2cc(O)c(-c3nc(CNC(=O)NCCN(C)C)cs3)nc2-c2csc(n2)[C@@H]2COC(=O)c3c4c5c(cccc5n3O)COC(=O)[C@@H](O[C@H]3C[C@](C)(O)[C@H](N(C)C)[C@H](C)O3)[C@@H](OC4)[C@H](NC(=O)c3csc1n3)c1nc(cs1)C(=O)N2.O=C(O)C(F)(F)F | > 10000
2 |  |  |  | CO/C(C)=C1/NC(=O)[C@H]([C@@H](C)O)NC(=O)c2csc(n2)-c2cc(O)c(-c3nc(CNC(=O)CCN4CCOCC4)cs3)nc2-c2csc(n2)[C@@H]2COC(=O)c3c4c5c(cccc5n3O)COC(=O)[C@@H](O[C@H]3C[C@](C)(O)[C@H](N(C)C)[C@H](C)O3)[C@@H](OC4)[C@H](NC(=O)c3csc1n3)c1nc(cs1)C(=O)N2.O=C(O)C(F)(F)F | > 10000
3 |  |  |  | CO/C(C)=C1/NC(=O)[C@H]([C@@H](C)O)NC(=O)c2csc(n2)-c2cc(O)c(-c3nc(CNC(=O)CN4CCN(C)CC4)cs3)nc2-c2csc(n2)[C@@H]2COC(=O)c3c4c5c(cccc5n3O)COC(=O)[C@@H](O[C@H]3C[C@](C)(O)[C@H](N(C)C)[C@H](C)O3)[C@@H](OC4)[C@H](NC(=O)c3csc1n3)c1nc(cs1)C(=O)N2.O=C(O)C(F)(F)F | > 10000
4 |  |  |  | CO/C(C)=C1/NC(=O)[C@H]([C@@H](C)O)NC(=O)c2csc(n2)-c2cc(O)c(-c3nc(CNC(=O)CN4CCOCC4)cs3)nc2-c2csc(n2)[C@@H]2COC(=O)c3c4c5c(cccc5n3O)COC(=O)[C@@H](O[C@H]3C[C@](C)(O)[C@H](N(C)C)[C@H](C)O3)[C@@H](OC4)[C@H](NC(=O)c3csc1n3)c1nc(cs1)C(=O)N2.O=C(O)C(F)(F)F | > 10000
5 |  |  |  | CO/C(C)=C1/NC(=O)[C@H]([C@@H](C)O)NC(=O)c2csc(n2)-c2cc(O)c(-c3nc(CNC(=O)CN(C)C)cs3)nc2-c2csc(n2)[C@@H]2COC(=O)c3c4c5c(cccc5n3O)COC(=O)[C@@H](O[C@H]3C[C@](C)(O)[C@H](N(C)C)[C@H](C)O3)[C@@H](OC4)[C@H](NC(=O)c3csc1n3)c1nc(cs1)C(=O)N2.O=C(O)C(F)(F)F | > 10000
6 |  |  |  | CO/C(C)=C1/NC(=O)[C@H]([C@@H](C)O)NC(=O)c2csc(n2)-c2cc(O)c(-c3nc(CNCc4cncnc4)cs3)nc2-c2csc(n2)[C@@H]2COC(=O)c3c4c5c(cccc5n3O)COC(=O)[C@@H](O[C@H]3C[C@](C)(O)[C@H](N(C)C)[C@H](C)O3)[C@@H](OC4)[C@H](NC(=O)c3csc1n3)c1nc(cs1)C(=O)N2.O=C(O)C(F)(F)F | > 10000
7 |  |  |  | CO/C(C)=C1/NC(=O)[C@H]([C@@H](C)O)NC(=O)c2csc(n2)-c2cc(O)c(-c3nc(CN(CCO)CCO)cs3)nc2-c2csc(n2)[C@@H]2COC(=O)c3c4c5c(cccc5n3O)COC(=O)[C@@H](O[C@H]3C[C@](C)(O)[C@H](N(C)C)[C@H](C)O3)[C@@H](OC4)[C@H](NC(=O)c3csc1n3)c1nc(cs1)C(=O)N2.O=C(O)C(F)(F)F | > 10000
8 | 0.5 (≈ 0.335 µM) | 0.125 (≈ 0.0838 µM) |  | CO/C(C)=C1/NC(=O)[C@H]([C@@H](C)O)NC(=O)c2csc(n2)-c2cc(O)c(-c3nc(CNC(=O)NCCc4cnc[nH]4)cs3)nc2-c2csc(n2)[C@@H]2COC(=O)c3c4c5c(cccc5n3O)COC(=O)[C@@H](O[C@H]3C[C@](C)(O)[C@H](N(C)C)[C@H](C)O3)[C@@H](OC4)[C@H](NC(=O)c3csc1n3)c1nc(cs1)C(=O)N2 | 
9 | 0.5 (≈ 0.34 µM) | 0.125 (≈ 0.0851 µM) |  | CO/C(C)=C1/NC(=O)[C@H]([C@@H](C)O)NC(=O)c2csc(n2)-c2cc(O)c(-c3nc(CNC(=O)NCCN(C)C)cs3)nc2-c2csc(n2)[C@@H]2COC(=O)c3c4c5c(cccc5n3O)COC(=O)[C@@H](O[C@H]3C[C@](C)(O)[C@H](N(C)C)[C@H](C)O3)[C@@H](OC4)[C@H](NC(=O)c3csc1n3)c1nc(cs1)C(=O)N2 | 
10 | 0.5 (≈ 0.34 µM) | 0.06 (≈ 0.0408 µM) | 0.015 (≈ 0.0102 µM) | CO/C(C)=C1/NC(=O)[C@H]([C@@H](C)O)NC(=O)c2csc(n2)-c2cc(O)c(-c3nc(CNC(=O)NCC(O)CO)cs3)nc2-c2csc(n2)[C@@H]2COC(=O)c3c4c5c(cccc5n3O)COC(=O)[C@@H](O[C@H]3C[C@](C)(O)[C@H](N(C)C)[C@H](C)O3)[C@@H](OC4)[C@H](NC(=O)c3csc1n3)c1nc(cs1)C(=O)N2 (some centres undefined) | 
11 | 0.0075 (≈ 0.00526 µM) | 0.0075 (≈ 0.00526 µM) | 0.00457 (≈ 0.00321 µM) | CO/C(C)=C1/NC(=O)[C@H]([C@@H](C)O)NC(=O)c2csc(n2)-c2cc(O)c(-c3nc(CNC(=O)C(N)=O)cs3)nc2-c2csc(n2)[C@@H]2COC(=O)c3c4c5c(cccc5n3O)COC(=O)[C@@H](O[C@H]3C[C@](C)(O)[C@H](N(C)C)[C@H](C)O3)[C@@H](OC4)[C@H](NC(=O)c3csc1n3)c1nc(cs1)C(=O)N2 | 
12 | > 1 | > 1 |  | CO/C(C)=C1/NC(=O)[C@H]([C@@H](C)O)NC(=O)c2csc(n2)-c2cc(O)c(-c3nc(CNC(=O)C(NC(N)=O)c4ccc(O)cc4)cs3)nc2-c2csc(n2)[C@@H]2COC(=O)c3c4c5c(cccc5n3O)COC(=O)[C@@H](O[C@H]3C[C@](C)(O)[C@H](N(C)C)[C@H](C)O3)[C@@H](OC4)[C@H](NC(=O)c3csc1n3)c1nc(cs1)C(=O)N2 (some centres undefined) | 
13 | 0.03 (≈ 0.0201 µM) | 0.06 (≈ 0.0401 µM) | 0.00046 (≈ 0.000308 µM) | CO/C(C)=C1/NC(=O)[C@H]([C@@H](C)O)NC(=O)c2csc(n2)-c2cc(O)c(-c3nc(CNCC(C)(C)N4CCOCC4)cs3)nc2-c2csc(n2)[C@@H]2COC(=O)c3c4c5c(cccc5n3O)COC(=O)[C@@H](O[C@H]3C[C@](C)(O)[C@H](N(C)C)[C@H](C)O3)[C@@H](OC4)[C@H](NC(=O)c3csc1n3)c1nc(cs1)C(=O)N2 | 
14 | 0.25 (≈ 0.175 µM) | 0.06 (≈ 0.042 µM) | 0.0075 (≈ 0.00525 µM) | CO/C(C)=C1/NC(=O)[C@H]([C@@H](C)O)NC(=O)c2csc(n2)-c2cc(O)c(-c3nc(CNCC(O)CO)cs3)nc2-c2csc(n2)[C@@H]2COC(=O)c3c4c5c(cccc5n3O)COC(=O)[C@@H](O[C@H]3C[C@](C)(O)[C@H](N(C)C)[C@H](C)O3)[C@@H](OC4)[C@H](NC(=O)c3csc1n3)c1nc(cs1)C(=O)N2 (some centres undefined) | 
15 | 1 (≈ 0.679 µM) | 0.125 (≈ 0.0849 µM) | 0.015 (≈ 0.0102 µM) | CO/C(C)=C1/NC(=O)[C@H]([C@@H](C)O)NC(=O)c2csc(n2)-c2cc(O)c(-c3nc(CNCC[C@H](O)[C@H](O)CO)cs3)nc2-c2csc(n2)[C@@H]2COC(=O)c3c4c5c(cccc5n3O)COC(=O)[C@@H](O[C@H]3C[C@](C)(O)[C@H](N(C)C)[C@H](C)O3)[C@@H](OC4)[C@H](NC(=O)c3csc1n3)c1nc(cs1)C(=O)N2 | 

Row | Compound | MIC [2] [µg/mL] | MIC [3] [µg/mL] | MIC [4] [µg/mL] | solubility [1] [µg/mL]
16 | CO/C(C)=C1/NC(=O)[C@H]([C@@H](C)O)NC(=O)c2csc(n2)-c2cc(O)c(-c3nc(CN(CCO)CCO)cs3)nc2-c2csc(n2)[C@@H]2COC(=O)c3c4c5c(cccc5n3O)COC(=O)[C@@H](O[C@H]3C[C@](C)(O)[C@H](N(C)C)[C@H](C)O3)[C@@H](OC4)[C@H](NC(=O)c3csc1n3)c1nc(cs1)C(=O)N2 | 0.12 (≈ 0.0832 µM) | 0.06 (≈ 0.0416 µM) | 0.0075 (≈ 0.0052 µM) | 
17 | C=C(NC(=O)c1csc(-c2nc3c(cc2O)-c2nc(cs2)C(=O)N[C@@H]([C@@H](C)O)C(=O)N/C(=C(\C)OC)c2nc(cs2)C(=O)N[C@@H]2c4nc(cs4)C(=O)N[C@@H](COC(=O)c4c5c6c(cccc6n4O)COC(=O)[C@@H](O[C@H]4C[C@](C)(O)[C@H](N(C)C)[C@H](C)O4)[C@H]2OC5)c2nc-3cs2)n1)C(N)=O [MJ347-81F4 A] | 0.03 (≈ 0.0209 µM) | 0.007 (≈ 0.00487 µM) | 0.002 (≈ 0.00139 µM) | 

Source: ChEMBL document CHEMBL2311426, “Synthesis and antibacterial activity of novel water-soluble nocathiacin analogs” (Bioorg Med Chem Lett, 2013)
